Measured values reported in US20130045985A1, “N-(5-FLUORO-2-((4-METHYLBENZYL)OXY)PYRIMIDIN-4-YL)BENZAMIDE DERIVATIVES” (Dow AgroSciences LLC, priority 2011, published 2013).

Experiments:
[1] = test system: Mycosphaerella graminicola; Anamorph: Septoria tritici; Bayer Code SEPTTR; assay: Fungicidal activity: leaf blotch of wheat (SEPTTR), one-day protectant and three-day curative; type: in vivo, Septoria tritici on wheat plants (variety Yuma); details: wheat plants, rating of % disease control
Description: Evaluation of Fungicidal Activity: Leaf Blotch of Wheat (Mycosphaerella graminicola; Anamorph: Septoria tritici; Bayer Code SEPTTR)
Wheat plants (variety Yuma) were grown from seed in a greenhouse in 50% mineral soil/50% soil-less Metro mix until the first leaf was fully emerged, with 7-10 seedlings per pot. These plants were inoculated with an aqueous spore suspension of Septoria tritici either prior to or after fungicide treatments. After inoculation the plants were kept in 100% relative humidity (one day in a dark dew chamber followed by two to three days in a lighted dew chamber) to permit spores to germinate and infect the leaf. The plants were then transferred to a greenhouse for disease to develop.
The following table presents the activity of typical compounds of the present disclosure when evaluated in these experiments. The effectiveness of the test compounds in controlling disease was determined by assessing the severity of disease on treated plants, then converting the severity to percent control based on the level of disease on untreated, inoculated plants.
In each case of Table I the rating scale is as follows: […]

Cc1ccc(COc2ncc(F)c(NC(=O)c3ccccc3)n2)cc1 [Cmpd 1, N-(5-fluoro-2-(4-methylbenzyloxy)pyrimidin-4-yl)benzamide]
SEPTTR 100 PPM 1DP ([1]; One-Day Protectant (1DP)): B (51-75) | SEPTTR 100 PPM 3DC ([1]; Three-Day Curative (3DC)): A (76-100) | melting point: 93 to 95 °C
